# Assays:
# MGC-803 = assay: Antiproliferative activity against human MGC-803 cells assessed as reduction in cell viability measured after 72 hrs by CCK-8 assay; assay type: functional, cell-based; details: MGC-803, 72 h
# AGS = assay: Antiproliferative activity against human AGS cells assessed as reduction in cell viability incubated for 72 hrs by CCK-8 assay; assay type: functional, cell-based
smiles,measurement,setting,value
O=C([C@H]1CCN1S(=O)(=O)c1c(F)c(F)c(F)c(F)c1F)N(Cc1ccc(C2CCCCC2)cc1)c1ccc(B(O)O)cc1,IC50,MGC-803,4.83 µM
same,IC50,AGS,1.98 µM
C[C@@H](C(=O)N(Cc1ccc(C2CCCCC2)cc1)c1ccc(B(O)O)cc1)N(C)S(=O)(=O)c1c(F)c(F)c(F)c(F)c1F,IC50,MGC-803,4.71 µM
same,IC50,AGS,2.57 µM
O=C([C@H]1CCCN1S(=O)(=O)c1c(F)c(F)c(F)c(F)c1F)N(Cc1ccc(C2CCCCC2)cc1)c1ccc(B(O)O)cc1,IC50,MGC-803,6.07 µM
same,IC50,AGS,2.78 µM

# — ChEMBL document CHEMBL5214948, “Boronic Acid: A Novel Pharmacophore Targeting Src Homology 2 (SH2) Domain of STAT3” (J Med Chem, 2022)
